The record followed here is PMC11436757, “BRCA2 stabilises RAD51 and DMC1 nucleoprotein filaments through a conserved interaction mode” (Nature Communications, 2024).

For series [1], the system named is RAD51 L180E-ssDNA filaments. Briefly: EMSA, BRC4-mediated disruption of RAD51 L180E-ssDNA filaments (random sequence ssDNA). The note with it: 100-nt random ssDNA. Format: biochemical. The procedure: (§1) To form nucleoprotein filaments, DMC1 and RAD51 was incubated with fluorescent 100-base ssDNA (5’-FAM- […]-3’) at the concentrations indicated in the figures for 30 minutes at 4 °C in reaction buffer. For DMC1, reaction buffer is 25 mM TEA (triethanolamine) pH 7.5, 1 mM ATP, 2 mM MgCl2, 0.1 mg/ml BSA, 2 mM DTT, 200 mM KCl. For RAD51, reaction buffer is 50 mM TEA (triethanolamine), 2 mM ATP, 0.5 mM MgCl2, 2 mM DTT. For assays requiring incomplete nucleoprotein filament assembly, the reaction buffer consisted of 50 mM TAE (tris, acetate, EDTA) pH 7.5, 2 mM ATP, 2 mM MgCl2, 2 mM DTT. In nucleoprotein formation stimulation assays or supershift experiments, BRCA2Ex14 or BRCA2Ex14-AAA were added for a further 30 min at 4 °C. […] Glycerol was added at a final concentration of 3%, and samples were analysed by electrophoresis on a 1% (w/v) (for DMC1) or 0.66% (w/v) (for RAD51) agarose gel in 0.5x TAE pH 8.0 at 20–40 V for ~4 h at 4 °C. DNA was detected by FAM using a Typhoon^TM FLA 9500 (GE Healthcare), with 473 nm laser at excitation wavelength 490 nm and emission wavelength 520 nm, using the LPB filter and a PMT voltage of 500 V. To analyse RAD51 nucleoprotein filaments assembled upon 100-base poly(dT) ssDNA, gels were stained post-run using SYBR^TM Gold Nucleic Acid Gel Stain (Invitrogen) and detected using a Typhoon^TM FLA 9500 (GE Healthcare).

Series [2] concerns DMC1 ΔN F85E. Put plainly: Amylose pull-down of His-DMC1 ΔN F85E (monomeric) with MBP-BRCA2 fusions. Conditions: lysates mixed; MBP-BRCA2 fusion; 20 mM Tris pH 8.0, 500 mM KCl, 2 mM DTT. Format: binding, human. The procedure:
(§2) For affinity experiments involving DMC1 ΔN V179E and F85E, MBP-fusions of BRCA2 fragments (Ex14, amino-acids 2387-2420, Ex14-Tr, amino acids 2401-2414, BRC4, amino acids 1519-1551) were cloned into pMAT11 vectors and DMC1 ΔN mutants (V179E or F85E) were cloned into pHAT4 vectors. Lysates of bacterial cultures expressing His6-DMC1 mutants or MBP-BRCA2 constructs were mixed, and complexes were purified through amylose affinity chromatography in 20 mM Tris pH 8.0, 500 mM KCl, 2 mM DTT and eluted using 30 mM D-maltose.

Series [3] concerns DMC1-ssDNA filaments. Put plainly: EMSA, BRC4-mediated disruption of DMC1-ssDNA filaments. Format: biochemical, human. The note with it: TEA pH 7.5 + KCl; stoichiometric excess of BRC4 (5-fold, 10-fold elsewhere in the source). The procedure: Finally, we tested whether binding of BRCA2 Ex14 protects DMC1-ssDNA nucleoprotein filaments from BRC4-mediated disruption (Fig. 3c). […] Further, whilst the core PhePP interaction site is sufficient to stimulate DMC1-ssDNA nucleoprotein filament formation, surrounding amino-acids that are present within Ex14 (but not Ex14-Tr) are necessary to super-shift filaments and confer protection from BRC4-mediated disruption.
as §1, with “KCl.” for “KCl. For RAD51, reaction buffer is 50 mM TEA (triethanolamine), 2 mM ATP, 0.5 mM MgCl2, 2 mM DTT. For assays requiring incomplete nucleoprotein filament assembly, the reaction buffer consisted of 50 mM TAE (tris, acetate, EDTA) pH 7.5, 2 mM ATP, 2 mM MgCl2, 2 mM DTT. In nucleoprotein formation stimulation assays or supershift experiments, BRCA2Ex14 or BRCA2Ex14-AAA were added for a further 30 min at 4 °C.”
A general note: Mobility shift assays separate free from complexed probe on a gel.

Series [4] deals with T1, DMC1 ΔN loop mutant (Homo sapiens, UniProt Q14565, A148D/A183D/D180S/D182S/G147I/G149R/G153E/H181G/N178G/P152G/V179L/Y151G).
T1 construct: DMC1 ΔN (83-340) were cloned into pHAT4; made in house
T1 sequence (Q14565 83-340 G147I/A148D/G149R/Y151G/P152G/G153E/N178G/V179L/D180S/H181G/D182S/A183D limits assumed): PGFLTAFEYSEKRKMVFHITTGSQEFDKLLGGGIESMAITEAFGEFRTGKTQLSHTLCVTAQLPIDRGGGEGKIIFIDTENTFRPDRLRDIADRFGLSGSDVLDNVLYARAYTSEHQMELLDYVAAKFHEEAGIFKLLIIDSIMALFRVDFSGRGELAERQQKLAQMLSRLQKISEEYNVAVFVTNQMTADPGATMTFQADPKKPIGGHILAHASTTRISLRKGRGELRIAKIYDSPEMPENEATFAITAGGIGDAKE
Briefly: Amylose pull-down of DMC1 ΔN loop mutant with MBP-BRCA2 fusions. Type of series: binding. The note with it: recombinant co-expression with MBP-BRCA2 fusion. The source says: (§3) For affinity pulldown experiments, MBP-fusions of BRCA2 fragments (Ex14, amino-acids 2387-2420, Ex14-Tr, amino acids 2401-2414, Ex27, amino acids 3270-3315, BRC4, amino acids 1519-1551) were cloned into pMAT11 vectors[54] and co-expressed with DMC1 ΔN, DMC1 ΔN loop mutant (in which DMC1 amino acids 147-GAGGYPG-153 and 178-NVDHDA-183 were replaced by the cognate sequences of RAD51 148-IDRGGGE-154 and 179-GLSGSD-184), RAD51 ΔN, RAD51 ΔN loop mutant (the reverse switch of DMC1 ΔN loop mutant), and RAD51. MBP-fusions and complexes were purified through amylose affinity chromatography.

Series [5] concerns RAD51-ssDNA filaments. Briefly: EMSA, protection of RAD51-ssDNA filaments from BRC4-mediated disruption (random sequence ssDNA). Format: biochemical. The note with it: 100-nt random ssDNA; 10-fold excess of Ex27. The procedure: as §1
The subject of series [6] is DMC1 ΔN V179E. Put plainly: Amylose pull-down of His-DMC1 ΔN V179E with MBP-BRCA2 fusions. Type of series: binding, human. The note with it: lysates mixed; MBP-BRCA2 fusion; 20 mM Tris pH 8.0, 500 mM KCl, 2 mM DTT. The procedure: as §2
Series [7] concerns RAD51-ssDNA filaments. Briefly: EMSA, BRC4-mediated disruption of RAD51-ssDNA filaments (random sequence ssDNA). The note with it: 100-nt random ssDNA; equimolar BRC4. Type of series: biochemical. The procedure:
as §1

Series [8] addresses T2, DMC1 ΔN (Homo sapiens, UniProt Q14565).
T2 construct: DMC1 ΔN (83-340) were cloned into pHAT4; His6 (TEV-cleavable) (N, cleaved yes); made in house; host or cells: E. coli BL21 (DE3)
T2 sequence (Q14565 83-340): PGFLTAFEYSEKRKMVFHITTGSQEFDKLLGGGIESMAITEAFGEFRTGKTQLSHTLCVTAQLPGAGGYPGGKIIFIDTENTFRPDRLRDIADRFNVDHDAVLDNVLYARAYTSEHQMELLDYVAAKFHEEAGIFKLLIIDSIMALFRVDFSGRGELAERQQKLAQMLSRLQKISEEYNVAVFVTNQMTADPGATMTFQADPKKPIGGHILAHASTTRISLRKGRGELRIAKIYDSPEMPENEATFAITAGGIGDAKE
Briefly: Amylose pull-down of DMC1 ΔN with MBP-BRCA2 fusions. Format: binding. Conditions: recombinant co-expression with MBP-BRCA2 fusion.
Excerpt: as §3

The target in series [9] is T3, DMC1 (Homo sapiens, UniProt Q14565 1-340).
T3 sequence: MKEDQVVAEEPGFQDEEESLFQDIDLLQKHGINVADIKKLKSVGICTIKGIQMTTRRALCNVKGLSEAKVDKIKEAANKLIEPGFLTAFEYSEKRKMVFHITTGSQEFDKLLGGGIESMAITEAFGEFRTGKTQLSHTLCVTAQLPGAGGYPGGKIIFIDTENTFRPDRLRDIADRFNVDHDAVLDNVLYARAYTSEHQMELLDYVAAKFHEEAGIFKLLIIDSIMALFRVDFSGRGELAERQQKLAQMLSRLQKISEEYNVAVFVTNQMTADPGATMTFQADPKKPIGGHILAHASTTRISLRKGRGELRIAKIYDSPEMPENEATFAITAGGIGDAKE
Put plainly: EMSA; TEA + 200 mM KCl, 1 mM ATP, 2 mM Mg2+; largely complete at 3 nt per protomer (11 µM DMC1); DMC1: 25 mM TEA (triethanolamine) pH 7.5, 200 mM KCl, 1 mM ATP, 2 mM MgCl2, 0.1 mg/ml BSA, 2 mM DTT, or 50 mM TAE pH 7.5, 2 mM ATP, 2 mM MgCl2, 2 mM DTT; RAD51: 50 mM TEA, 2 mM ATP, 0.5 mM MgCl2, 2 mM DTT; all 4 C, agarose gel in 0.5x TAE. The note with it: protein: recombinant; tags: His6 removed by TEV; chain copies: 8; label: 5'-FAM; single strand.

Series [10] concerns the target T4, DMC1;BRCA2 Ex14-Tr (Homo sapiens;Homo sapiens, UniProt Q14565;P51587 1-340;, |).
T4 sequence 1: T3 sequence
T4 sequence 2: RPTKVFVPPFKTKS
Briefly: EMSA; TAE + Ex14-Tr; mostly stimulated filament formation; DMC1: 25 mM TEA (triethanolamine) pH 7.5, 200 mM KCl, 1 mM ATP, 2 mM MgCl2, 0.1 mg/ml BSA, 2 mM DTT, or 50 mM TAE pH 7.5, 2 mM ATP, 2 mM MgCl2, 2 mM DTT; RAD51: 50 mM TEA, 2 mM ATP, 0.5 mM MgCl2, 2 mM DTT; all 4 C, agarose gel in 0.5x TAE. Conditions: tags: His6 removed by TEV;; label: 5'-FAM; single strand.

Series [11] addresses T5, DMC1;BRCA2 Ex14 (Homo sapiens;Homo sapiens, UniProt Q14565;P51587 1-340;2387-2420, |).
T5 sequence 1: T3 sequence
T5 sequence 2: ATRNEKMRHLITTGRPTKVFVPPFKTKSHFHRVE
Briefly: EMSA, BRC4 protection; TEA + KCl; 110 µM Ex14, 10-fold excess BRC4, protected; DMC1: 25 mM TEA (triethanolamine) pH 7.5, 200 mM KCl, 1 mM ATP, 2 mM MgCl2, 0.1 mg/ml BSA, 2 mM DTT, or 50 mM TAE pH 7.5, 2 mM ATP, 2 mM MgCl2, 2 mM DTT; RAD51: 50 mM TEA, 2 mM ATP, 0.5 mM MgCl2, 2 mM DTT; all 4 C, agarose gel in 0.5x TAE. Conditions: protein: recombinant;recombinant; tags: His6 removed by TEV;His6-MBP removed by TEV; label: 5'-FAM; single strand.

For series [12], the target named is RAD51;BRCA2 Ex27 (Homo sapiens?;Homo sapiens?, UniProt Q06609;P51587 1-339;3270-3315, |). Briefly: EMSA, BRC4 protection; 10-fold excess Ex27 + BRC4; protected, less complete than on poly(dT); DMC1: 25 mM TEA (triethanolamine) pH 7.5, 200 mM KCl, 1 mM ATP, 2 mM MgCl2, 0.1 mg/ml BSA, 2 mM DTT, or 50 mM TAE pH 7.5, 2 mM ATP, 2 mM MgCl2, 2 mM DTT; RAD51: 50 mM TEA, 2 mM ATP, 0.5 mM MgCl2, 2 mM DTT; all 4 C, agarose gel in 0.5x TAE. Conditions: tags: ;; label: 5'-FAM; single strand.

For “BRC4: BRCA2 BRC repeat 4 peptide, amino acids 1519-1551 (PTLLGFHTASGKKVKIAKESLDKVKNLFDEKEQ; not fully specified; left off: His6, end not stated, state not stated | MBP, end not stated, kept) [reference compound]”, the “disruption of RAD51 L180E-ssDNA filaments” value in [1] is listed as “underwent similar disruption”. Besides, the binding in pull-down entry in [2] is given as “retained binding”; in series [4] it was “retained its interaction”; in [6] it was “retained binding”; in series [8] it was “bind”. Moreover, the “disruption of DMC1-ssDNA filaments” value in series [3] was “completely disrupted”. Moreover, the “protection of RAD51-ssDNA filaments from BRC4-mediated disruption” value in [5] is “partially disrupt filaments”. The “disruption of RAD51-ssDNA filaments” value in [7] is listed as “disrupted”.

B1: 100-nt random-sequence ssDNA (ssDNA)
DNA: AATTCTCATTTTACTTACCGGACGCTATTAGCAGTGGGTGAGCAAAAACAGGAAGGCAAAATGCCGCAAAAAAGGGAATAAGGGCGACACGGAAATGTTG
Take B1: the binding result in series [9], in series [10], in series [11] and in [12] was “binds” throughout.
